# Source: patent publication US20230049952A1, “METHODS AND COMPOUNDS FOR RESTORING MUTANT P53 FUNCTION” (PMV Pharmaceuticals, Inc., priority 2020, published 2023)
# Test system: p53 signaling pathway in MT373 tumors
# Experiment: MT373 syngeneic sarcoma model: mouse p53 signaling pathway profiling panel
# Format: in vivo
compound,measurement,setting,value
"CCn1c(C#CCNc2ccccc2)cc2cc(CNC3CCN(C)CC3)ccc21 [Compound 1, 1-Anilino-3-{1-ethyl-5-[(1-methyl-4-piperidylamino)methyl]-1H-indol-2-yl}-2-propyne]",Apex1 fold increase or percent reduction vs vehicle control,"75 mg/kg BIDx1, 8 h",19.97 fold or %
same,Atm fold increase or percent reduction vs vehicle control,"75 mg/kg BIDx1, 8 h",13.42 fold or %
same,Atr fold increase or percent reduction vs vehicle control,"75 mg/kg BIDx1, 8 h",8.05 fold or %
same,Bag1 fold increase or percent reduction vs vehicle control,"75 mg/kg BIDx1, 8 h",24.87 fold or %
same,Bax fold increase or percent reduction vs vehicle control,"75 mg/kg BIDx1, 8 h",1.97 fold or %
same,Bbc3 fold increase or percent reduction vs vehicle control,"75 mg/kg BIDx1, 8 h",2.97 fold or %
same,Bcl2 fold increase or percent reduction vs vehicle control,"75 mg/kg BIDx1, 8 h",7.84 fold or %
same,Bid fold increase or percent reduction vs vehicle control,"75 mg/kg BIDx1, 8 h",1.19 fold or %
same,Birc5 fold increase or percent reduction vs vehicle control,"75 mg/kg BIDx1, 8 h",15.16 fold or %
same,Brca1 fold increase or percent reduction vs vehicle control,"75 mg/kg BIDx1, 8 h",3.14 fold or %
same,Brca2 fold increase or percent reduction vs vehicle control,"75 mg/kg BIDx1, 8 h",5.75 fold or %
same,Btg2 fold increase or percent reduction vs vehicle control,"75 mg/kg BIDx1, 8 h",14.84 fold or %
same,Casp2 fold increase or percent reduction vs vehicle control,"75 mg/kg BIDx1, 8 h",17.74 fold or %
same,Ccnb1 fold increase or percent reduction vs vehicle control,"75 mg/kg BIDx1, 8 h",4.81 fold or %
same,Ccne1 fold increase or percent reduction vs vehicle control,"75 mg/kg BIDx1, 8 h",12.14 fold or %
same,Ccng1 fold increase or percent reduction vs vehicle control,"75 mg/kg BIDx1, 8 h",6.19 fold or %
same,Ccnh fold increase or percent reduction vs vehicle control,"75 mg/kg BIDx1, 8 h",15.28 fold or %
same,Cdc25a fold increase or percent reduction vs vehicle control,"75 mg/kg BIDx1, 8 h",15.20 fold or %
same,Cdk1 fold increase or percent reduction vs vehicle control,"75 mg/kg BIDx1, 8 h",32.00 fold or %
same,Cdk4 fold increase or percent reduction vs vehicle control,"75 mg/kg BIDx1, 8 h",37.50 fold or %
same,Cdkn1a fold increase or percent reduction vs vehicle control,"75 mg/kg BIDx1, 8 h",7.14 fold or %
same,Cdkn2a fold increase or percent reduction vs vehicle control,"75 mg/kg BIDx1, 8 h",31.09 fold or %
same,Chek1 fold increase or percent reduction vs vehicle control,"75 mg/kg BIDx1, 8 h",19.58 fold or %
same,Cradd fold increase or percent reduction vs vehicle control,"75 mg/kg BIDx1, 8 h",21.01 fold or %
same,Cul9 fold increase or percent reduction vs vehicle control,"75 mg/kg BIDx1, 8 h",1.73 fold or %
same,Dapk1 fold increase or percent reduction vs vehicle control,"75 mg/kg BIDx1, 8 h",1.37 fold or %
same,Dnmt1 fold increase or percent reduction vs vehicle control,"75 mg/kg BIDx1, 8 h",1.16 fold or %
same,E2f1 fold increase or percent reduction vs vehicle control,"75 mg/kg BIDx1, 8 h",1.05 fold or %
same,E2f3 fold increase or percent reduction vs vehicle control,"75 mg/kg BIDx1, 8 h",21.77 fold or %
same,Egfr fold increase or percent reduction vs vehicle control,"75 mg/kg BIDx1, 8 h",42.31 fold or %
same,Egr1 fold increase or percent reduction vs vehicle control,"75 mg/kg BIDx1, 8 h",59.72 fold or %
same,Ep300 fold increase or percent reduction vs vehicle control,"75 mg/kg BIDx1, 8 h",15.26 fold or %
same,Ercc1 fold increase or percent reduction vs vehicle control,"75 mg/kg BIDx1, 8 h",20.74 fold or %
same,Esr1 fold increase or percent reduction vs vehicle control,"75 mg/kg BIDx1, 8 h",1.22 fold or %
same,Fadd fold increase or percent reduction vs vehicle control,"75 mg/kg BIDx1, 8 h",2.66 fold or %
same,Fas fold increase or percent reduction vs vehicle control,"75 mg/kg BIDx1, 8 h",1.75 fold or %
same,Fasl fold increase or percent reduction vs vehicle control,"75 mg/kg BIDx1, 8 h",1.24 fold or %
same,Foxo3 fold increase or percent reduction vs vehicle control,"75 mg/kg BIDx1, 8 h",1.04 fold or %
same,Gadd45a fold increase or percent reduction vs vehicle control,"75 mg/kg BIDx1, 8 h",25.34 fold or %
same,Hif1a fold increase or percent reduction vs vehicle control,"75 mg/kg BIDx1, 8 h",1.26 fold or %
same,Il6 fold increase or percent reduction vs vehicle control,"75 mg/kg BIDx1, 8 h",68.47 fold or %
same,Jun fold increase or percent reduction vs vehicle control,"75 mg/kg BIDx1, 8 h",22.75 fold or %
same,Kras fold increase or percent reduction vs vehicle control,"75 mg/kg BIDx1, 8 h",1.03 fold or %
same,Lig4 fold increase or percent reduction vs vehicle control,"75 mg/kg BIDx1, 8 h",1.13 fold or %
same,Mdm2 fold increase or percent reduction vs vehicle control,"75 mg/kg BIDx1, 8 h",5.35 fold or %
same,Mdm4 fold increase or percent reduction vs vehicle control,"75 mg/kg BIDx1, 8 h",1.03 fold or %
same,Mel1 fold increase or percent reduction vs vehicle control,"75 mg/kg BIDx1, 8 h",24.40 fold or %
same,Mlh1 fold increase or percent reduction vs vehicle control,"75 mg/kg BIDx1, 8 h",12.48 fold or %
same,Msh2 fold increase or percent reduction vs vehicle control,"75 mg/kg BIDx1, 8 h",31.49 fold or %
same,Myod1 fold increase or percent reduction vs vehicle control,"75 mg/kg BIDx1, 8 h",4.56 fold or %
same,Nf1 fold increase or percent reduction vs vehicle control,"75 mg/kg BIDx1, 8 h",31.85 fold or %
same,Nfkb1 fold increase or percent reduction vs vehicle control,"75 mg/kg BIDx1, 8 h",11.36 fold or %
same,Pcna fold increase or percent reduction vs vehicle control,"75 mg/kg BIDx1, 8 h",32.47 fold or %
same,Pmaip1 fold increase or percent reduction vs vehicle control,"75 mg/kg BIDx1, 8 h",1.60 fold or %
same,Ppm1d fold increase or percent reduction vs vehicle control,"75 mg/kg BIDx1, 8 h",1.48 fold or %
same,Prc1 fold increase or percent reduction vs vehicle control,"75 mg/kg BIDx1, 8 h",1.28 fold or %
same,Prkca fold increase or percent reduction vs vehicle control,"75 mg/kg BIDx1, 8 h",5.77 fold or %
same,Pten fold increase or percent reduction vs vehicle control,"75 mg/kg BIDx1, 8 h",0.35 fold or %
same,Pttg1 fold increase or percent reduction vs vehicle control,"75 mg/kg BIDx1, 8 h",1.04 fold or %
same,Rb1 fold increase or percent reduction vs vehicle control,"75 mg/kg BIDx1, 8 h",16.87 fold or %
same,Rela fold increase or percent reduction vs vehicle control,"75 mg/kg BIDx1, 8 h",1.12 fold or %
same,Rprm fold increase or percent reduction vs vehicle control,"75 mg/kg BIDx1, 8 h",3.08 fold or %
same,Serpinb5 fold increase or percent reduction vs vehicle control,"75 mg/kg BIDx1, 8 h",3.96 fold or %
same,Sesn2 fold increase or percent reduction vs vehicle control,"75 mg/kg BIDx1, 8 h",3.24 fold or %
same,Sfn fold increase or percent reduction vs vehicle control,"75 mg/kg BIDx1, 8 h",1.12 fold or %
same,Sirt1 fold increase or percent reduction vs vehicle control,"75 mg/kg BIDx1, 8 h",1.09 fold or %
same,Stat1 fold increase or percent reduction vs vehicle control,"75 mg/kg BIDx1, 8 h",1.35 fold or %
same,Tnf fold increase or percent reduction vs vehicle control,"75 mg/kg BIDx1, 8 h",1.85 fold or %
same,Traf1 fold increase or percent reduction vs vehicle control,"75 mg/kg BIDx1, 8 h",1.23 fold or %
same,Trp53bp2 fold increase or percent reduction vs vehicle control,"75 mg/kg BIDx1, 8 h",12.87 fold or %
same,Trp53 fold increase or percent reduction vs vehicle control,"75 mg/kg BIDx1, 8 h",1.13 fold or %
same,Apex1 fold increase or percent reduction vs vehicle control,"75 mg/kg BIDx1, 24 h",30.49 fold or %
same,Atm fold increase or percent reduction vs vehicle control,"75 mg/kg BIDx1, 24 h",23.68 fold or %
same,Atr fold increase or percent reduction vs vehicle control,"75 mg/kg BIDx1, 24 h",10.08 fold or %
same,Bag1 fold increase or percent reduction vs vehicle control,"75 mg/kg BIDx1, 24 h",25.05 fold or %
same,Bax fold increase or percent reduction vs vehicle control,"75 mg/kg BIDx1, 24 h",1.60 fold or %
same,Bbc3 fold increase or percent reduction vs vehicle control,"75 mg/kg BIDx1, 24 h",1.80 fold or %
same,Bcl2 fold increase or percent reduction vs vehicle control,"75 mg/kg BIDx1, 24 h",30.58 fold or %
same,Bid fold increase or percent reduction vs vehicle control,"75 mg/kg BIDx1, 24 h",1.04 fold or %
same,Birc5 fold increase or percent reduction vs vehicle control,"75 mg/kg BIDx1, 24 h",45.92 fold or %
same,Brca1 fold increase or percent reduction vs vehicle control,"75 mg/kg BIDx1, 24 h",42.43 fold or %
same,Brca2 fold increase or percent reduction vs vehicle control,"75 mg/kg BIDx1, 24 h",36.40 fold or %
same,Btg2 fold increase or percent reduction vs vehicle control,"75 mg/kg BIDx1, 24 h",31.06 fold or %
